Measurements as given in US8648063B2, “Potentiation of cancer chemotherapy by 7-(2, 5-dihydro-4-imidazo [1, 2-a] pyridine-3-yl-2,5-dioxo-1H-pyrrol-3-yl)-9-fluoro-1,2,3,4 tetrahydro -2-(1-piperidinyl-carbonyl)-pyrrolo [3,2,1-jk] [1,4] benzodiazepine” (Eli Lilly and Company, priority 2007, dated 2014).

Key:
A2780 = test: Caspase-3/7 apoptosis assay (Apo-ONE) in A2780; type: cell-based, human
Source text: (§1) Apoptosis or programmed cell death is characterized by a set of biochemical reactions, one of which is the induction of caspases. Activated caspases are proteases that participate in a cascade of cleavage events that disable key enzymes responsible for cell homeostasis and repair. Caspases 3 and 7 play key effector roles in apoptosis and can be detected and measured by a fluorescent biochemical assay. The increase of Caspase-3/7 activity in cells is directly correlated to apoptotic activity. (D. W. Nicholson, et al., Nature, 376, 37-43 (1995)) The Promega Apo-ONE Homogeneous Caspase-3/7 Assay Kit was used (Catalog #G7791). The assay buffer consists of 30 mM HEPES (N-(2-hydroxyethyl)piperazine-M-(2-ethanesulfonic acid) pH 7.4, 150 mM NaCl, 50 mM KCl, 10 mM MgCl2, 0.4 mM EGTA (ethylene glycol tetraacetic acid), 0.5% Nonidet P40 (octylphenolpoly(ethyleneglycol ether)), 0.1% CHAPS (3-[(3-Cholamidopropyl)dimeth-ylammonio]-1-propanesulfonate hydrate and 10% sucrose, which lyses/permeabilizes cultured cells and a caspase 3/7 substrate, Z-DEVD (Z-Asp(OMe)-Glu(OMe)-Val-Asp(OMe)), coupled to a profluorescent rhodamine 110. When the buffer-substrate mixture is added to a test sample, the cleavage and subsequent removal of the DEVD peptides by caspase 3/7 activity results in intense fluorescence of the rhodamine 110 leaving group, which is detected by excitation at 499 nm. The amount of fluorescent product is proportional to the amount of caspase 3/7 cleavage activity in the sample.
(§2) To measure the apoptotic effect of test compounds, tumor cells are plated at 1×10^4 cells per well in 96 well plates and incubated overnight at 37° C., with 5% CO2. Tumor cells are treated with test compound at desired concentrations in triplicate, including untreated/negative control wells. […] At the end of the incubation period, a mixture of the assay buffer and substrate is added to each sample well. The fluorescence in each well is measured at an excitation wavelength of 485+/−20 nm and an emission wavelength of 530+/−25 nm. The % increase of caspase activity in treated cells is calculated relative to untreated controls.
(§3) The data in Tables 1-12 are expressed as % increase of caspase activity relative to untreated controls unless otherwise noted.

HCT-116 = test: Caspase-3/7 apoptosis assay (Apo-ONE) in HCT-116; type: cell-based, human; conditions: 48 hrs
Source text: as §1
(§4) To measure the apoptotic effect of test compounds, tumor cells are plated at 1×10^4 cells per well in 96 well plates and incubated overnight at 37° C., with 5% CO2. Tumor cells are treated with test compound at desired concentrations in triplicate, including untreated/negative control wells. The assay plates are re-incubated for 48 hrs. At the end of the incubation period, a mixture of the assay buffer and substrate is added to each sample well. The fluorescence in each well is measured at an excitation wavelength of 485+/−20 nm and an emission wavelength of 530+/−25 nm. The % increase of caspase activity in treated cells is calculated relative to untreated controls.
as §3

Colo-205 = test: Caspase-3/7 apoptosis assay (Apo-ONE) in Colo-205; type: cell-based, human; conditions: 48 hrs
Source text: as §1, §4, §3

MKN 45 = test: Caspase-3/7 apoptosis assay (Apo-ONE) in MKN 45; type: cell-based
Source text: as §1, §2, §3

AGS = test: Caspase-3/7 apoptosis assay (Apo-ONE) in AGS; type: cell-based; conditions: Cmpd I 900 nM
Source text: as §1, §2, §3

[1] = tested on: A2780 human ovarian carcinoma xenografts; test: Tumor growth delay, A2780 xenografts; type: in vivo, CD-1 nu/nu mice; conditions: cisplatin 5 mg/kg IP, Compound I 5 mg/kg IV, alone or combined, 3 cycles separated by 7 days, time to 1000 mm^3 vs control
Protocol: (§5) Cultured cells are implanted subcutaneously in the rear flank of female CD-1 nu/nu strain mice which have been acclimated for one week in the animal facility after receipt from the vendor. Mice are randomized into groups of 7 or 8 mice per group and treatment begun when the mean tumor volume reaches ˜100 mm^3 Compound I is dosed IV and the chemotherapeutic agent is given IP. When the agents are given in combination, the chemotherapeutic agent is dosed 60 minutes prior to Compound I. The tumors are measured 2 times per week by electronic calipers to plot growth curves. Tumor growth delay is the increase in median time it takes for a tumor to reach 1000 mm^3 in volume when compared to a control group. Animals are also monitored for fluctuations in body weight and survival.

A549 = test: Caspase-3/7 apoptosis assay (Apo-ONE) in A549; type: cell-based; conditions: Compound I 300 nM, 48 hrs
Source text: as §1, §4, §3

Calu-6 = test: Caspase-3/7 apoptosis assay (Apo-ONE) in Calu-6; type: cell-based; conditions: 48 hrs
Source text: as §1, §4, §3

[2] = tested on: Colo-205 human colorectal carcinoma xenografts; test: Tumor growth delay, Colo-205 xenografts; type: in vivo, CD-1 nu/nu mice; conditions: cisplatin 5 mg/kg IP, Compound I 5 mg/kg IV, alone or combined, 3 cycles separated by 7 days, time to 1000 mm^3 vs control
Protocol: as §5

SKOV3 = test: Caspase-3/7 apoptosis assay (Apo-ONE) in SKOV3; type: cell-based; conditions: Cmpd I 300 nM, Doxorubicin 1 μM, 48 hrs
Source text: as §1, with “The amount of fluorescent product is proportional to the amount of caspase 3/7 cleavage activity in the sample.” left out

KATO III = test: Caspase-3/7 apoptosis assay (Apo-ONE) in KATO III; type: cell-based; conditions: Cmpd I 600 nM, Cisplatin 10 μM, 48 hrs
Source text: as §1, with “The amount of fluorescent product is proportional to the amount of caspase 3/7 cleavage activity in the sample.” left out

[3] = tested on: NCI-H460 human non-small cell lung cancer xenografts; test: Tumor growth delay, NCI-H460 xenografts; type: in vivo, CD-1 nu/nu mice; conditions: Compound I 5 mg/kg IV, time to 1000 mm^3 vs control
Protocol: as §5

NCI-H460 = test: Caspase-3/7 apoptosis assay (Apo-ONE) in NCI-H460; type: cell-based, human; conditions: 48 hrs
Source text: as §1, §4, §3

[4] = tested on: HCT-116 human colorectal carcinoma xenografts; test: Tumor growth delay, HCT-116 xenografts; type: in vivo, CD-1 nu/nu mice; conditions: cisplatin 10 mg/kg IP, Compound I 5 mg/kg IV, alone or combined, 3 cycles separated by 7 days, time to 1000 mm^3 vs control
Protocol: as §5

[5] = Compound I 330 nM, CPT-11 20 nM, 48 hrs
[6] = Compound I 330 nM, CPT-11 20 nM
[7] = Cmpd I 300 nM, 5-FU 5 μM, plates incubated for 72 hours
[8] = Calu 6, Cmpd I 33 nM, Cisplatin 2 μM
[9] = Calu-6, Compound I 30 nM, pemetrexed 60 nM
[10] = Cmpd I 300 nM, Carboplatin 5 μM, plates incubated for 72 hours
[11] = Compound I 30 nM, pemetrexed 60 nM, 48 hrs
[12] = Compound I 60 nM, cisplatin 5 μM, 48 hrs
[13] = Cmpd I 60 nM, Gemcitabine 30 nM
[14] = Compound I 30 nM, pemetrexed 60 nM
[15] = Compound I 300 nM, cisplatin 5 μM
[16] = Carboplatin 50 mg/kg IP, alone or combined, every 14 days × 3 cycles
[17] = Compound I 110 nM, cisplatin 5 μM
[18] = NCI H-460, Cmpd I 300 nM, Etoposide 1 μM
[19] = NCI H-460, Cmpd I 300 nM, Gemcitabine 50 nM
[20] = NCI H-460, Cmpd I 300 nM, Pemetrexed 500 nM
[21] = NCI-H460, Compound I 100 nM, carboplatin 10 μM
[22] = NCI-H460, Compound I 300 nM, cisplatin 1 μM
[23] = Cmpd I 600 nM, Cisplatin 10 μM, 48 hrs
[24] = Cisplatin 5 μM, plates incubated for 72 hours

CCc1c2c(nc3ccc(OC(=O)N4CCC(N5CCCCC5)CC4)cc13)-c1cc3c(c(=O)n1C2)COC(=O)[C@]3(O)CC [CPT-11, irinotecan, reference compound]
% increase of caspase activity relative to untreated controls (A2780; [5]): 153%
% increase of caspase activity relative to untreated controls (HCT-116; [6]): 50%
% increase of caspase activity relative to untreated controls (Colo-205; Compound I 33 nM, CPT-11 20 nM): 38%

O=c1[nH]cc(F)c(=O)[nH]1 [Compound 5-FU, 5-fluorouracil, reference compound]
% increase of caspase activity relative to untreated controls (HCT-116; Cmpd I 12 nM, 5-FU 5 μM): 55%
% increase of caspase activity relative to untreated controls (MKN 45; [7]): 415%
% increase of caspase activity relative to untreated controls (AGS; 5-FU 3 μM, 48 hrs): 133%

O=C1NC(=O)C(c2cnc3ccccn23)=C1c1cn2c3c(cc(F)cc13)CN(C(=O)N1CCCCC1)CC2 [Compound I, 7-(2,5-dihydro-4-imidazo[1,2-a]pyridine-3-yl-2,5-dioxo-1H-pyrrol-3-yl)-9-fluoro-1,2,3,4-tetrahydro-2-(1-piperidinyl-carbonyl)-pyrrolo[3,2,1-jk][1,4]benzodiazepine]
Tumor Growth Delay Mean ± Standard Error [1]: -0.3 ± 1.4 days
% increase of caspase activity relative to untreated controls (A549; carboplatin 10 μM): 52%
% increase of caspase activity relative to untreated controls (A549; cisplatin 1 μM): 80%
% increase of caspase activity relative to untreated controls (Calu-6; [8]): 154%
% increase of caspase activity relative to untreated controls (Calu-6; [9]): 139%
Tumor Growth Delay Mean ± Standard Error [2]: 10.9 ± 2.2 days
% increase of caspase activity relative to untreated controls (SKOV3): 0%
% increase of caspase activity relative to untreated controls (A2780; [10]): 55%
% increase of caspase activity relative to untreated controls (A2780; [11]): 10%
% increase of caspase activity relative to untreated controls (A2780; [12]): 0%
% increase of caspase activity relative to untreated controls (A2780; [5]): 1%
% increase of caspase activity relative to untreated controls (HCT-116; Cmpd I 12 nM, 5-FU 5 μM): 47%
% increase of caspase activity relative to untreated controls (HCT-116; [13]): 0%
% increase of caspase activity relative to untreated controls (HCT-116; [14]): 0%
% increase of caspase activity relative to untreated controls (HCT-116; [15]): 16%
% increase of caspase activity relative to untreated controls (HCT-116; [6]): 53%
% increase of caspase activity relative to untreated controls (KATO III): 48%
Tumor Growth Delay Mean ± Standard Error [3, 16]: 3 ± 1.4 days
Tumor Growth Delay Mean ± Standard Error ([3]; carboplatin 10 mg/kg IP, pemetrexed 300 mg/kg IP, every 14 days for 3 cycles): 1.4 ± 3.8 days
% increase of caspase activity relative to untreated controls (Colo-205; Compound I 33 nM, CPT-11 20 nM): 45%
% increase of caspase activity relative to untreated controls (Colo-205; [17]): 12%
% increase of caspase activity relative to untreated controls (NCI-H460; [18]): 222%
% increase of caspase activity relative to untreated controls (NCI-H460; [19]): 186%
% increase of caspase activity relative to untreated controls (NCI-H460; [20]): 38%
% increase of caspase activity relative to untreated controls (NCI-H460; [21]): 122%
% increase of caspase activity relative to untreated controls (NCI-H460; [22]): 99%
% increase of caspase activity relative to untreated controls (MKN 45; [7]): 105%
% increase of caspase activity relative to untreated controls (MKN 45; [23]): 162%
Tumor Growth Delay Mean ± Standard Error [4]: 2 ± 2.2 days
% increase of caspase activity relative to untreated controls (AGS; 5-FU 3 μM, 48 hrs): 0%
% increase of caspase activity relative to untreated controls (AGS; [24]): 0%

COc1cccc2c1C(=O)c1c(O)c3c(c(O)c1C2=O)C[C@@](O)(C(=O)CO)C[C@@H]3O[C@H]1C[C@H](N)[C@H](O)[C@H](C)O1 [Doxorubicin, doxorubicin, reference compound]
% increase of caspase activity relative to untreated controls (SKOV3): 184%

COc1cc([C@@H]2c3cc4c(cc3[C@@H](O[C@@H]3O[C@@H]5CO[C@@H](C)O[C@H]5[C@H](O)[C@H]3O)[C@H]3COC(=O)[C@H]23)OCO4)cc(OC)c1O [Etoposide, etoposide, reference compound]
% increase of caspase activity relative to untreated controls (NCI-H460; [18]): 251%

Nc1ccn([C@@H]2O[C@H](CO)[C@@H](O)C2(F)F)c(=O)n1 [Gemcitabine, reference compound]
% increase of caspase activity relative to untreated controls (HCT-116; [13]): 324%
% increase of caspase activity relative to untreated controls (NCI-H460; [19]): 1187%

Nc1nc2[nH]cc(CCc3ccc(C(=O)N[C@@H](CCC(=O)O)C(=O)O)cc3)c2c(=O)[nH]1 [Pemetrexed, pemetrexed, reference compound]
% increase of caspase activity relative to untreated controls (Calu-6; [9]): 24%
% increase of caspase activity relative to untreated controls (A2780; [11]): 0%
% increase of caspase activity relative to untreated controls (HCT-116; [14]): 23%
% increase of caspase activity relative to untreated controls (NCI-H460; [20]): 185%

N.N.O=C([O-])C1(C(=O)[O-])CCC1.[Pt+2] [carboplatin, reference compound]
% increase of caspase activity relative to untreated controls (A549; carboplatin 10 μM): 14%
% increase of caspase activity relative to untreated controls (A2780; [10]): 78%
Tumor Growth Delay Mean ± Standard Error [3, 16]: 2 ± 2.9 days
% increase of caspase activity relative to untreated controls (NCI-H460; [21]): 16%

N.N.[Cl][Pt][Cl] [cisplatin, reference compound]
Tumor Growth Delay Mean ± Standard Error [1]: 5 ± 1.6 days
% increase of caspase activity relative to untreated controls (A549; cisplatin 1 μM): 4%
% increase of caspase activity relative to untreated controls (Calu-6; [8]): 97%
Tumor Growth Delay Mean ± Standard Error [2]: 18 ± 3.5 days
% increase of caspase activity relative to untreated controls (A2780; [12]): 1.5%
% increase of caspase activity relative to untreated controls (HCT-116; [15]): 36%
% increase of caspase activity relative to untreated controls (KATO III): 389%
% increase of caspase activity relative to untreated controls (Colo-205; [17]): 8%
% increase of caspase activity relative to untreated controls (NCI-H460; [22]): 47%
% increase of caspase activity relative to untreated controls (MKN 45; [23]): 359%
Tumor Growth Delay Mean ± Standard Error [4]: 23 ± 10.3 days
% increase of caspase activity relative to untreated controls (AGS; [24]): 147%
